Reference: patent US20250074896A1, “ARYLTETRAHYDROPYRIDAZINE DERIVATIVE OR SALT THEREOF AND INSECTICIDAL AGENT CONTAINING THE COMPOUND AND METHOD FOR USING SAME” (NIHON NOHYAKU CO., LTD., priority 2021, published 2025)
Read-outs that look alike come from different tables or passages of the source.

How the values were obtained:
Format in all cases: in vivo
[1] = system: Western Flower Thrips (Frankliniella occidentalis); test: Insecticidal test on western flower thrips (kidney bean leaf pieces, hatched larvae); settings: 96 h, read-out: insecticidal efficacy (corrected mortality rate) against western flower thrips
Text: (§1) • A: the mortality rate is 100%. • B: the mortality rate is 90 to 99%. • C: the mortality rate is 80 to 89%. • D: the mortality rate is 50 to 79%. • E: the mortality rate is 0 to 49%.
Insecticidal Test on Western Flower Thrips (Frankliniella occidentalis)
Female adults of western flower thrips were inoculated onto kidney bean leaf pieces, and allowed to lay eggs thereon for one day, then the female adults were removed. After 3 days, the hatched larvae on the leaf pieces were counted, and then the agrochemical dispersions diluted to 50 ppm or 500 ppm, each of which contained the compound described in Tables 1 to 6 as an active ingredient were applied. The number of larvae of the species surviving at 4 days after the treatment was counted, and the corrected mortality rate was calculated according to the formula shown below, and the insecticidal efficacy was evaluated according to the criteria of Test Example 1. This test was conducted in duplicate.

[2] = system: Diamondback moth (Plutella xylostella); test: Insecticidal test on diamondback moth (dip treatment of Chinese cabbage seedlings with laid eggs); settings: 144 h, read-out: insecticidal efficacy (corrected mortality rate) against diamondback moth
Text: Insecticidal Test on Diamondback moth (Plutella xylostella)
Adults of diamondback moth were released onto Chinese cabbage seedlings and allowed to lay eggs thereon. At 2 days after the release of the adults, the Chinese cabbage seedlings with laid eggs were dipped for about 30 seconds in agrochemical dispersions diluted to 50 ppm or 500 ppm, each of which contained a different compound represented by the general formula (1) of the present invention as an active ingredient. After air-dried, the seedlings were kept in a thermostatic chamber at 25° C. At 6 days after the dip treatment, the number of surviving larvae per plot was counted, the corrected mortality rate was calculated according to the formula shown below, and the insecticidal efficacy was evaluated according to the criteria shown below. This test was conducted in triplicate using 10 adults of diamondback moth per plot.
as §1

[3] = system: Small Brown Planthopper (Laodelphax striatellus); test: Insecticidal test on small brown planthopper (dipped rice seedlings, 3rd-instar larvae); settings: 192 h, rice seedlings dipped 30 seconds, 8 days after inoculation, read-out: insecticidal efficacy (corrected mortality rate) against small brown planthopper
Text: as §1
Insecticidal Test on Small Brown Planthopper (Laodelphax striatellus)
The compounds represented by the general formula (1) of the present invention or salts thereof were separately dispersed in water and diluted to 50 ppm or 500 ppm. Rice plant seedlings (variety: Nihonbare) were dipped in the agrochemical dispersions for 30 seconds. After air-dried, each seedling was put into a separate glass test tube and inoculated with ten 3rd-instar larvae of small brown planthopper, and then the glass test tubes were capped with cotton plugs. At 8 days after the inoculation, the numbers of surviving larvae and dead larvae were counted, the corrected mortality rate was calculated according to the formula shown below, and the insecticidal efficacy was evaluated according to the criteria of Test Example 1.

[4] = 500 ppm, 4 days after the treatment
[5] = 500 ppm, dip about 30 seconds, 6 days after treatment, 25° C.
[6] = dip about 30 seconds, 6 days after treatment, 25° C.

O=C(Nc1ccc(C(F)(F)F)cc1)C1=C(O)CN(c2ccc(C(F)(F)F)nc2)NC1=O [1-85, N-(4-trifluoromethylphenyl)-5-hydroxy-3-oxo-1-(6-(trifluoromethyl)pyridin-3-yl)-1,2,3,6-tetrahydropyridazine-4-carboxamide]
100%: mortality at 500 ppm [1] | mortality at 500 ppm [2]

CCNC(=O)N1C(=O)C(C(=O)Nc2ccc(F)cc2)=C(O)CN1c1ccc(C(F)(F)F)nc1 [3-22, N^1-ethyl-N^5-(4-fluorophenyl)-4-hydroxy-6-oxo-2-(6-(trifluoromethyl)pyridin-3-yl)-2,3-dihydropyridazine-1,5(6H)-dicarboxamide]
100%: mortality at 500 ppm [3] | mortality at 50 ppm ([1]; 4 days after the treatment) | mortality at 500 ppm [1, 4] | mortality at 500 ppm [2, 5]

CC(C)(C)OC(=O)N1C(=O)C(C(=O)Nc2ccc(F)cc2)=C(O)CN1c1ccc(C(F)(F)F)nc1 [3-308, tert-butyl 5-((4-fluorophenyl)carbamoyl)-4-hydroxy-6-oxo-2-(6-(trifluoromethyl)pyridin-3-yl)-2,3-dihydropyridazine-1(6H)-carboxylate]
100%: mortality at 50 ppm [3] | mortality at 500 ppm [3] | mortality at 50 ppm ([1]; 4 days after the treatment) | mortality at 500 ppm [1, 4] | mortality at 50 ppm [2, 6] | mortality at 500 ppm [2, 5]

CNC(=S)N1C(=O)C(C(=O)Nc2ccc(F)cc2)=C(O)CN1c1ccc(C(F)(F)F)nc1 [3-362, N-(4-fluorophenyl)-5-hydroxy-2-(methylcarbamothioyl)-3-oxo-1-(6-(trifluoromethyl)pyridin-3-yl)-1,2,3,6-tetrahydropyridazine-4-carboxamide]
100%: mortality at 50 ppm ([1]; 4 days after the treatment) | mortality at 500 ppm [1, 4] | mortality at 50 ppm [2, 6] | mortality at 500 ppm [2, 5]

COC(=O)N1C(=O)C(C(=O)Nc2ccn(C)n2)=C(O)CN1c1ccc(C#N)cc1 [3-437, methyl 2-(4-cyanophenyl)-4-hydroxy-5-((1-methyl-1H-pyrazol-3-yl)carbamoyl)-6-oxo-2,3-dihydropyridazine-1(6H)-carboxylate]
100%: mortality at 50 ppm [3] | mortality at 500 ppm [3] | mortality at 50 ppm ([1]; 4 days after the treatment) | mortality at 500 ppm [1, 4]

CCCNC(=O)N1C(=O)C(C(=O)Nc2ccn(C)n2)=C(O)CN1c1ccc(C#N)cc1 [3-563, N^5-(1-methyl-1H-pyrazol-3-yl) N^1-propyl 4-hydroxy-6-oxo-2-(4-cyanophenyl)-2,3-dihydropyridazine-1,5(6H)-dicarboxamide]
100%: mortality at 50 ppm [3] | mortality at 500 ppm [3]

CC(C)(C)OC(=O)N1C(=O)C(C(=S)Nc2ccc(F)cc2)=C(O)CN1c1ccc(C(F)(F)F)nc1 [4-34, tert-butyl 5-((4-fluorophenyl)carbamothioyl)-4-hydroxy-6-oxo-2-(6-(trifluoromethyl)pyridin-3-yl)-2,3-dihydropyridazine-1(6H)-carboxylate]
100%: mortality at 50 ppm [3] | mortality at 500 ppm [3] | mortality at 50 ppm ([1]; 4 days after the treatment) | mortality at 500 ppm [1, 4] | mortality at 50 ppm [2, 6] | mortality at 500 ppm [2, 5]

O=C(Nc1ccc(F)cc1)C1=C(S)CN(c2ccc(C(F)(F)F)nc2)NC1=O [5-2, N-(4-fluorophenyl)-5-mercapto-3-oxo-1-(6-(trifluoromethyl)pyridin-3-yl)-1,2,3,6-tetrahydropyridazine-4-carboxamide]
100%: mortality at 50 ppm [3] | mortality at 500 ppm [3] | mortality at 50 ppm ([1]; 4 days after the treatment) | mortality at 500 ppm [1, 4] | mortality at 50 ppm [2, 6] | mortality at 500 ppm [2, 5]

CC(C)(C)OC(=O)N1C(=O)C(C(=O)Nc2ccc(F)cc2)=C(S)CN1c1ccc(C(F)(F)F)nc1 [5-7, tert-butyl 5-((4-fluorophenyl)carbamoyl)-4-mercapto-6-oxo-2-(6-(trifluoromethyl)pyridin-3-yl)-2,3-dihydropyridazine-1(6H)-carboxylate]
100%: mortality at 50 ppm [3] | mortality at 500 ppm [3] | mortality at 50 ppm ([1]; 4 days after the treatment) | mortality at 500 ppm [1, 4] | mortality at 50 ppm [2, 6] | mortality at 500 ppm [2, 5]

CSC1=C(C(=O)Nc2ccc(F)cc2)C(=O)N(C(=O)OC(C)(C)C)N(c2ccc(C(F)(F)F)nc2)C1 [5-11, tert-butyl 5-((4-fluorophenyl)carbamoyl)-4-methylsulfanyl-6-oxo-2-(6-(trifluoromethyl)pyridin-3-yl)-2,3-dihydropyridazine-1(6H)-carboxylate]
100%: mortality at 50 ppm [3] | mortality at 500 ppm [3] | mortality at 50 ppm ([1]; 4 days after the treatment) | mortality at 500 ppm [1, 4] | mortality at 50 ppm [2, 6] | mortality at 500 ppm [2, 5]

N#Cc1ccc(N2CC(O)=C(C(=O)Nc3ccc(F)cc3)C(=S)N2)cn1 [6-6, 1-(6-cyanopyridin-3-yl)-N-(4-fluorophenyl)-5-hydroxy-3-thioxo-1,2,3,6-tetrahydropyridazine-4-carboxamide]
100%: mortality at 500 ppm [3] | mortality at 500 ppm [1, 4] | mortality at 500 ppm [2, 5]
